In ChEMBL document CHEMBL1201862, “PubChem BioAssay data set” (2004):
The source made the active and inactive calls. Cut-off read from the data, not from the text of the source, for most assays here: actives have a measured EC50 and inactives only a lower limit.

Legend:
cells [1] = assay type: functional
[2] = Trypanosoma cruzi growth suppression in host cells – NIH3T3 host cells, beta-gal luminescence, confirmation (AID 2044); assay type: functional, cell-based;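 note: intracellular parasites grown in NIH/3T3 mouse fibroblasts as host cells; luminescent beta-galactosidase reporter signal from transgenic T. cruzi replicating inside host cells; inhibitors lower the luminescence signal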
[3] = NIH3T3 cell viability loss – ATP luminescence, mouse fibroblasts, counter-screen, dose response (AID 2010); assay type: functional, cell-based;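 note: cells exposed to compound for about 90 hours before reading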
[4] = viability of uninfected HEp-2 cells – cell-based, HTS, cytotoxicity control for RSV inhibitor project, dose response (AID 2410); assay type: functional; conditions: human respiratory syncytial virus
[5] = biological target: T1, Heat shock factor protein 1 (Mus musculus, UniProt P38532); experiment: enhancement of HSF1-driven luciferase signal – cell-based, NIH3T3, luminescence, dose retest, confirmation (AID 435004); assay type: functional;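 note: stress induced by proteasome inhibitor MG132 added 30 min after compound; luciferase reporter driven by HSF1 response element in NIH3T3 cells; actives raise luminescence as potentiators of the MG132 stress response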
T1 sequence (P38532 whole entry): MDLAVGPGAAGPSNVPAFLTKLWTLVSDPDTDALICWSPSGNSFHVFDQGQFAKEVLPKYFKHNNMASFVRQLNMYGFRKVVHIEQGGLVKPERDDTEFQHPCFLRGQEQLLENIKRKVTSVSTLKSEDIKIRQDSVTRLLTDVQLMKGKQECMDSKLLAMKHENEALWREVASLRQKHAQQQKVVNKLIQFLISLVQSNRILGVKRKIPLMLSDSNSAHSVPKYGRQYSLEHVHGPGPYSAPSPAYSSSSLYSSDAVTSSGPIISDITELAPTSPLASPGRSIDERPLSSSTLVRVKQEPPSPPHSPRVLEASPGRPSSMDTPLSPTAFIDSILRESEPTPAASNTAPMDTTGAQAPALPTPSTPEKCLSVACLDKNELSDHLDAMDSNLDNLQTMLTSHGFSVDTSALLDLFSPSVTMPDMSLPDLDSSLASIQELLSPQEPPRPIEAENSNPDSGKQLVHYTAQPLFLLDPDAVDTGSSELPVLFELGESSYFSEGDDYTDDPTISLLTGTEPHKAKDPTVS

[6] = Luminescence Cell-Based Dose Retest to Confirm Inhibitors of Cancer Stem Cells. [Related pubchem assays (depositor defined):AID2717, AID2721]; assay type: functional; conditions: Homo sapiens
[7] = test system: Streptococcus sp. 'group A'; experiment: Streptococcus pyogenes SK(-)GAS viability under kanamycin – luminescence, BacTiterGlo, confirmation, counter-screen for streptokinase expression inhibitor project, dose response (AID 1900); assay type: functional, organism-based
Streptococcus = experiment: GAS UMAA2166 growth inhibition – luminescence, BacTiterGlo, counter-screen for streptokinase expression inhibitor project, dose response (AID 1915); assay type: functional, organism-based;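 note: potency for reduction of bacterial viability or growth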
[8] = biological target: Luciferin 4-monooxygenase (Photinus pyralis, UniProt P08659); experiment: inhibition of purified Photinus pyralis luciferase – biochemical, luminescence, dose response (AID 1891)
Sequence of Luciferin 4-monooxygenase (P08659 whole entry): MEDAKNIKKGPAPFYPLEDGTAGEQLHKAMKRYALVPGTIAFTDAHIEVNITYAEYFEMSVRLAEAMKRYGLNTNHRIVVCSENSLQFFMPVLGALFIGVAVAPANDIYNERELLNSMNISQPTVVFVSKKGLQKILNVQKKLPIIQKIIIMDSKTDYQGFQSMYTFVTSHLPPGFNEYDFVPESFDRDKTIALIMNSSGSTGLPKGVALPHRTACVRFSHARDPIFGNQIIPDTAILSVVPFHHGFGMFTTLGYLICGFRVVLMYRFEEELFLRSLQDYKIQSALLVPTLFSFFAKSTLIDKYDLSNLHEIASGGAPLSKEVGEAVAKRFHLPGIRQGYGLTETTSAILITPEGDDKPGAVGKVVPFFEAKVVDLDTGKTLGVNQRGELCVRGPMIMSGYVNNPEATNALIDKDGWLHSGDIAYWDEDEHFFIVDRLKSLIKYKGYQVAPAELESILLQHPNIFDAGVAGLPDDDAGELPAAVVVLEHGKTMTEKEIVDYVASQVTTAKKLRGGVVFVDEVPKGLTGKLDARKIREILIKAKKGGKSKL

[9] = Luminescence Cell-Based Dose Confirmation HTS to Identify Inhibitors of Platelet Dense Granule Release. [Related pubchem assays: 1663 (Primary HTS), 1678 (Summary of Project)]; assay type: functional
cells [10] = assay type: functional, cell-based
cells [11] = assay type: functional, cell-based; remark: listed apart in the source
Cytochrome P450 2C9 = Cytochrome P450 2C9 (Homo sapiens, UniProt P11712)
Sequence of Cytochrome P450 2C9 (P11712 whole entry): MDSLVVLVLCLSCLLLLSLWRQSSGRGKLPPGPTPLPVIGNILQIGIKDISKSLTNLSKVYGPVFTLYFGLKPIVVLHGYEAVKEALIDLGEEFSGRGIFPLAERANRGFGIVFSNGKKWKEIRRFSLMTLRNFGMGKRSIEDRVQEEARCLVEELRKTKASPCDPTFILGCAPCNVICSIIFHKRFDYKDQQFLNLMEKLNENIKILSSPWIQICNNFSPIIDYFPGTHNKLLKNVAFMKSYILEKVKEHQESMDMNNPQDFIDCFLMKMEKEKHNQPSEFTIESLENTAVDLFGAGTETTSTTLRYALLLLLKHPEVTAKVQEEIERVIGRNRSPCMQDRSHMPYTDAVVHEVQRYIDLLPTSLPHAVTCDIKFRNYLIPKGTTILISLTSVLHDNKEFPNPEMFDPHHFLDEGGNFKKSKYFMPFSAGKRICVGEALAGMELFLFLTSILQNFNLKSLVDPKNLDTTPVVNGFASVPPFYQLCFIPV

[12] = biological target: T1, Heat shock factor protein 1; experiment: decrease of HSF1-responsive luciferase luminescence – cell-based, NIH3T3, dose retest, confirmation (AID 2382); assay type: functional;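 note: NIH3T3 fibroblasts with HSF1-driven luciferase reporter stressed by proteasome inhibitor MG132; luminescence from HSF1-driven luciferase expression after 8 hours of MG132 stress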
[13] = Luminescence Cell-Based Dose Response HTS to Identify Inhibitors of 5'UTR Stem-Loop Driven Prion Protein mRNA Translation in H4 Neuroglioblastoma Cells. [Related pubchem assays: 1827 (Project Summary), 1813 (Primary HTS)]; assay type: functional
[14] = alpha-synuclein stem-loop luciferase translation blockers – H4 neuroglioma cells, luminescence, confirmation (AID 1988); assay type: functional, cell-based
[15] = luciferase reporter signal suppression in cells – H4 neuroglioma cells, luminescence, dose response (AID 1990); assay type: functional, cell-based

**Q.** For `Cc1ccc(OCC(=O)OCc2c(C)noc2C)cc1C`, which IC50 (cells [1]) is on record?
**A.** The IC50 was 22.7 µM (active).

**Q.** For `CC(C)(C)NCC1(CO)SC(N)=NC1=O` (centres undefined), which IC50 (cells [1]) is on record?
**A.** The IC50 was 16.4 µM (active).

**Q.** And the EC50 [2]?
**A.** Its EC50 is 3.82 µM (active).

**Q.** And the EC50 [3]?
**A.** The EC50 was > 30 µM (not active).

**Q.** For `Cc1ccc(C(=O)Nc2nc(C(C)(C)C)cs2)s1`, which CC50 [4] is on record?
**A.** The CC50 was 3.25 µM (active).

**Q.** For `CCCN(CCC)C(S)=NC1CC2C=CC1C2` (centres undefined), which EC50 [5] is on record?
**A.** Its EC50 is > 260 µM (inactive).

**Q.** Which IC50 (cells [1]) does the source give for `O=C(Oc1ccccc1Cl)c1ccc2c(=O)n3c(nc2c1)CCC3` here?
**A.** Its IC50 is 5.48 µM (active).

**Q.** With `C[C@@H]1CN([C@H](C)CO)C(=O)Cc2cc(NS(=O)(=O)c3ccc(Cl)cc3)ccc2O[C@H]1CN(C)Cc1ccc(C(F)(F)F)cc1` as the compound, how does the AC50 [6] read?
**A.** The AC50 was 3.11 µM (active).

**Q.** For `CCOc1ccc(C(=O)Nc2ccc(S(=O)(=O)N3C[C@@H]4C[C@@H](C3)c3cccc(=O)n3C4)cc2)cc1`, which CC50 [4] is on record?
**A.** The CC50 was 23.7 µM (active).

**Q.** With `O=C(NCc1ccc(F)cc1)C(=O)Nc1nc(C23CC4CC(CC(C4)C2)C3)cs1` as the compound, how does the AC50 [6] read?
**A.** The AC50 was 1.91 µM (active).

**Q.** What about the EC50 [7] of the same compound?
**A.** The EC50 was 823 nM (active).

**Q.** What about the EC50 (Streptococcus) of the same compound?
**A.** Its EC50 is 2.55 µM (active).

**Q.** With `O=C(CSc1nnc(-c2c[nH]c3ccccc23)n1-c1ccc(F)cc1)NCc1ccco1` as the compound, how does the EC50 [5] read?
**A.** Its EC50 is 40.4 µM (active).

**Q.** For `CN(C)c1ccc(/C=C2\CCC/C(=C\c3ccccc3)C2=O)cc1`, which AC50 [6] is on record?
**A.** Its AC50 is 3.81 µM (active).

**Q.** For `COc1ccc(CCNC(=O)c2coc(=O)c(Br)c2)cc1`, which AC50 [6] is on record?
**A.** The AC50 was 7.39 µM (active).

**Q.** With `Cc1nnc(N2CCC(C(=O)N3CCCCCC3)CC2)c2nn(-c3ccc(Cl)cc3)c(C)c12` as the compound, how does the CC50 [4] read?
**A.** The CC50 was 21.9 µM (active).

**Q.** For `CC(=O)N1c2ccc(S(=O)(=O)N3CCCCC3)cc2CC1C(=O)Nc1ccccc1C(F)(F)F` (centres undefined), which EC50 [8] is on record?
**A.** Its EC50 is > 112 µM (not active).

**Q.** And the EC50 [9]?
**A.** Its EC50 is > 112 µM (not active).

**Q.** For `CCOC(=O)CC(=O)CSCC(=O)Nc1ccc(C)cc1`, which EC50 [5] is on record?
**A.** The EC50 was > 260 µM (inactive).

**Q.** Which EC50 (cells [10]) does the source give for `COc1ccccc1N(CC(=O)NC1CCCCC1)S(C)(=O)=O` here?
**A.** The EC50 was > 350 µM (not active).

**Q.** What about the EC50 (cells [11]) of the same compound?
**A.** Its EC50 is > 350 µM (not active).

**Q.** For `CN(CC(=O)Nc1cccc(F)c1)C(=O)c1ccc(-c2ccc(Cl)cc2)o1`, which CC50 [4] is on record?
**A.** Its CC50 is 23.1 µM (active).

**Q.** Which EC50 [5] does the source give for `Cc1ccccc1CSc1nsc(N)n1` here?
**A.** The EC50 was > 260 µM (inactive).

**Q.** And the AC50 (Cytochrome P450 2C9)?
**A.** Its AC50 is 2 µM (inconclusive).

**Q.** For `Cc1sc2ncnc(SCC(=O)N3CCCC3)c2c1C`, which EC50 [8] is on record?
**A.** Its EC50 is > 112 µM (not active).

**Q.** And the EC50 [9]?
**A.** The EC50 was > 112 µM (not active).

**Q.** Which results are given for `O=C1C(=O)c2ccccc2C(O)=C1c1cccc([N+](=O)[O-])c1`?
**A.** CC50 [4]: 14.2 µM (active); EC50 (cells [10]): > 350 µM (not active); EC50 (cells [11]): 56.5 µM (active)

**Q.** Which results are given for `CCOC(=O)c1cc2nc(-c3ccco3)cc(C(F)(F)F)n2n1`?
**A.** EC50 [8]: > 112 µM (not active); EC50 [9]: > 112 µM (not active); EC50 [12]: > 195 µM (not active)

**Q.** For `CC1=C(C(=O)OC2CCCC2)C(c2coc3ccccc3c2=O)C2=C(O)CC(C)(C)CC2=N1` (centres undefined), which AC50 [6] is on record?
**A.** Its AC50 is 97.3 µM (active).

**Q.** For `O=C(CN1CCN(S(=O)(=O)c2ccc3ccccc3c2)CC1)N1CCc2ccccc2C1`, which EC50 [13] is on record?
**A.** Its EC50 is 23 µM (active).

**Q.** What about the CC50 [4] of the same compound?
**A.** The CC50 was 25.3 µM (active).

**Q.** And the EC50 [14]?
**A.** Its EC50 is > 120 µM (not active).

**Q.** What about the EC50 [15] of the same compound?
**A.** Its EC50 is 14.4 µM (active).

**Q.** With `COc1cccc(-c2cn3nc(C)c(C)nc3n2)c1` as the compound, how does the EC50 [8] read?
**A.** Its EC50 is 19.7 µM (active).

**Q.** What about the EC50 [9] of the same compound?
**A.** The EC50 was 6.72 µM (active).
